From US9045445B2, “Glycine transporter-1 inhibitors, methods of making them, and uses thereof” (Albany Molecular Research, Inc., priority 2010, dated 2015)
Counter-ions that a name gives are not always drawn. Like-named read-outs stand apart in the source and are kept apart here.

Key:
[1] = target: T1, glycine transporter-1 (GlyT-1) (Homo sapiens, UniProt P48067); assay: [14C]glycine uptake assay in JAR cells endogenously expressing GlyT-1 (scintillation proximity); assay type: cell-based; conditions: JAR cells, [14C]glycine 5 μM, 3 hour incubation; read-out: GlyT-1 IC50
T1 construct: JAR cells (ATCC#HTB-144), which endogenously express GlyT-1; host or cells: JAR human choriocarcinoma cells
T1 sequence (P48067 1-706): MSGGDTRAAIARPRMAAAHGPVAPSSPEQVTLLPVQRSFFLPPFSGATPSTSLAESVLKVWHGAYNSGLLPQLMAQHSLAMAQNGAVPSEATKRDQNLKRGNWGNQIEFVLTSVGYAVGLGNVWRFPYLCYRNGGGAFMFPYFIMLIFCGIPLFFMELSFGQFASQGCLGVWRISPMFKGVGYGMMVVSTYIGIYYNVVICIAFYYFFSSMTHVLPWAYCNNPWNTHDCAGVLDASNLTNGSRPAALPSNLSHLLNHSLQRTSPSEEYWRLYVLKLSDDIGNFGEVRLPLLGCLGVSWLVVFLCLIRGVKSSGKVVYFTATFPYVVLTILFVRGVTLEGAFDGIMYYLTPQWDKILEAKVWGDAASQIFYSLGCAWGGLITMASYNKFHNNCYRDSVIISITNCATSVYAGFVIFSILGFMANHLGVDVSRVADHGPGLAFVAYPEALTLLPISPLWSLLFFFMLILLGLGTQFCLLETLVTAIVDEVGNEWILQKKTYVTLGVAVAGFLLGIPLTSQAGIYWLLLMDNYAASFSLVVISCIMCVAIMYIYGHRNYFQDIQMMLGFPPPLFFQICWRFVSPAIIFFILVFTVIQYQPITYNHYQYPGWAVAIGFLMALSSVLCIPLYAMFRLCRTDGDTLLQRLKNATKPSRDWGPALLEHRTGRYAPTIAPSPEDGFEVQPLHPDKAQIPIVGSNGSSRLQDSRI
Outline: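 IC50 comes from a four-parameter fit of nine-point, duplicate curves measuring inhibition of 5 μM [14C]glycine uptake, read by scintillation proximity after 3 h at 37 °C. Cells are human JAR, which express GlyT-1 endogenously, given 10 min compound pre-treatment in pH 7.4 buffer with 5 mM alanine and 0.75% DMSO.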

[2] = target: T2, glycine transporter-2 (GlyT-2) (Homo sapiens, UniProt Q9Y345); assay: [14C]glycine uptake assay in HEK-GlyT-2 transfected cells; assay type: cell-based; conditions: HEK-GlyT-2 cells
T2 construct: expressed in transfected cells
T2 sequence (Q9Y345 1-797): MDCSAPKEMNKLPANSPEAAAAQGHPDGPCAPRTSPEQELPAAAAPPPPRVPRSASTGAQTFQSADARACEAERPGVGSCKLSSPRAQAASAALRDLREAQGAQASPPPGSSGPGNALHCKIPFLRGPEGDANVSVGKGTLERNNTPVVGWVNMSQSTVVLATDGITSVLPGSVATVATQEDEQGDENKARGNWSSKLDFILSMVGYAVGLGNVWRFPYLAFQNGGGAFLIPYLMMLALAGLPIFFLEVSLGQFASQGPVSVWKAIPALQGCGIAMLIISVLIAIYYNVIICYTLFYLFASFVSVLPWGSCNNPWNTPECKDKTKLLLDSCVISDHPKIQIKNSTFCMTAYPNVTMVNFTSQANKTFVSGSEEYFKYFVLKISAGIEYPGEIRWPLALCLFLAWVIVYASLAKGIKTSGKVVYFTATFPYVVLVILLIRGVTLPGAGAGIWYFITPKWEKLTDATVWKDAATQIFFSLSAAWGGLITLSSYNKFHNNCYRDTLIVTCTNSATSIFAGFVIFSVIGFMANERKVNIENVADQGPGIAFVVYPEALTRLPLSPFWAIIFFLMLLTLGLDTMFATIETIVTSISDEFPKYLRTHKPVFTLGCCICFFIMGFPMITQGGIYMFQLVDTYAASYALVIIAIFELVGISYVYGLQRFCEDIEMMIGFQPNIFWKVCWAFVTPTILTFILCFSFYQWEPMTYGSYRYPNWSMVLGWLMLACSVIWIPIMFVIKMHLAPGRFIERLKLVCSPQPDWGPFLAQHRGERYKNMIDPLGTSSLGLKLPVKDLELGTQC

[3] = system: cerebrospinal fluid (CSF) glycine levels; assay: CSF-glycine assay after oral administration; assay type: in vivo; conditions: Rattus norvegicus, po, rats, read-out: % CSF Glycine Increase versus Vehicle Control
Method: This study measured cerebrospinal fluid (CSF) glycine levels after oral administration of test compound. […] After the specified pretreatment time, the rats were euthanized by CO2 asphyxiation and a hypodermic needle was inserted into the cisterna magna to withdraw 50-100 μl of CSF. The CSF was diluted with deuterated-glycine as an internal standard glycine was quantified by LC/MS/MS.

| Structure (SMILES) | IC50 [1] [nM] | IC50 [2] [µM] | change in vivo at 10 mg/kg ([3]; 0.5 h, pretreatment 30 mins) [%] | change in vivo at 30 mg/kg ([3]; 0.5 h, pretreatment 30 mins) [%] | change in vivo at 75 mg/kg ([3]; 0.5 h, pretreatment 30 mins) [%] | change in vivo at 10 mg/kg ([3]; 2 h, pretreatment 120 mins) [%] | change in vivo at 30 mg/kg ([3]; 2 h, pretreatment 120 mins) [%] | change in vivo at 75 mg/kg ([3]; 2 h, pretreatment 120 mins) [%] | change in vivo at 100 mg/kg ([3]; 0.5 h, pretreatment 30 mins) [%] | change in vivo at 100 mg/kg ([3]; 2 h, pretreatment 120 mins) [%] | change in vivo at 3 mg/kg ([3]; 0.5 h, pretreatment 30 mins) [%] | change in vivo at 3 mg/kg ([3]; 2 h, pretreatment 120 mins) [%] | change in vivo at 10 mg/kg ([3]; 6 h, pretreatment 360 mins) [%] | change in vivo at 30 mg/kg ([3]; 6 h, pretreatment 360 mins) [%] |
| --- | --- | --- | --- | --- | --- | --- | --- | --- | --- | --- | --- | --- | --- | --- |
| CCCS(=O)(=O)N1CCN(C2(CNC(=O)c3c(F)cccc3F)CCC(F)(F)CC2)CC1 [compound 130, N-((4,4-Difluoro-1-(4-(propylsulfonyl)piperazin-1-yl)cyclohexyl)methyl)-2,6-difluorobenzamide Hydrochloride] | 67 | > 75 | 148 | 185 | 201 | 123 | 125 | 201 | – | – | – | – | – | – |
| Cn1cnc(S(=O)(=O)N2CCN(C3(CNC(=O)c4ccc(F)cc4F)CCC(F)(F)CC3)CC2)c1 [compound 162, N-((4,4-difluoro-1-(4-(1-methyl-1H-imidazol-4-ylsulfonyl)piperazin-1-yl)cyclohexyl)methyl)-2,4-difluorobenzamide Hydrochloride] | 46 | > 135 | 154 | 178 | – | 130 | 156 | – | 207 | 156 | – | – | – | – |
| CCCS(=O)(=O)N1CCN(C2(CNC(=O)c3cc(F)c(F)cc3Cl)CCC(F)(F)CC2)CC1 [compound 264, 2-Chloro-N-((4,4-difluoro-1-(4-(propylsulfonyl)piperazin-1-yl)cyclohexyl)methyl)-4,5-difluorobenzamide Hydrochloride] | 48 | > 75 | – | – | – | – | – | – | – | – | – | – | – | – |
| CCCS(=O)(=O)N1CCN(C2(CNC(=O)c3ccc(C(F)(F)F)cc3C(F)(F)F)CCOCC2)CC1 [compound 267, N-((4-(4-(propylsulfonyl)piperazin-1-yl)tetrahydro-2H-pyran-4-yl)methyl)-2,4-bis(trifluoromethyl) benzamide Hydrochloride] | 46 | – | – | – | – | 138 | 229 | – | – | – | – | – | 129 | 190 |
| O=C(NCC1(N2CCN(S(=O)(=O)N3CCCC3)CC2)CCC(F)(F)CC1)c1ccc(C(F)(F)F)cc1Cl [compound 270, 2-Chloro-N-((4,4-difluoro-1-(4-(pyrrolidin-1-ylsulfonyl)piperazin-1-yl)cyclohexyl)methyl)-4-(trifluoromethyl)benzamide Hydrochloride] | 47 | > 75 | – | – | – | – | – | – | – | – | – | – | – | – |

The next compounds have a lower IC50 [1] than those just listed; values first:

| IC50 [1] [nM] | IC50 [2] [µM] | Structure (SMILES) | change in vivo at 10 mg/kg ([3]; 0.5 h, pretreatment 30 mins) [%] | change in vivo at 30 mg/kg ([3]; 0.5 h, pretreatment 30 mins) [%] | change in vivo at 75 mg/kg ([3]; 0.5 h, pretreatment 30 mins) [%] | change in vivo at 10 mg/kg ([3]; 2 h, pretreatment 120 mins) [%] | change in vivo at 30 mg/kg ([3]; 2 h, pretreatment 120 mins) [%] | change in vivo at 75 mg/kg ([3]; 2 h, pretreatment 120 mins) [%] | change in vivo at 100 mg/kg ([3]; 0.5 h, pretreatment 30 mins) [%] | change in vivo at 100 mg/kg ([3]; 2 h, pretreatment 120 mins) [%] | change in vivo at 3 mg/kg ([3]; 0.5 h, pretreatment 30 mins) [%] | change in vivo at 3 mg/kg ([3]; 2 h, pretreatment 120 mins) [%] | change in vivo at 10 mg/kg ([3]; 6 h, pretreatment 360 mins) [%] | change in vivo at 30 mg/kg ([3]; 6 h, pretreatment 360 mins) [%] |
| --- | --- | --- | --- | --- | --- | --- | --- | --- | --- | --- | --- | --- | --- | --- |
| 23 | > 75 | CCCS(=O)(=O)N1CCN(C2(CNC(=O)c3cc(F)c(Cl)cc3Cl)CCC(F)(F)CC2)CC1 [compound 263, 2,4-Dichloro-N-((4,4-difluoro-1-(4-(propylsulfonyl)piperazin-1-yl)cyclohexyl)methyl)-5-fluorobenzamide Hydrochloride] | – | – | – | – | – | – | – | – | – | – | – | – |
| 18 | 74.9 | Cn1cnc(S(=O)(=O)N2CCN(C3(CNC(=O)c4c(F)cccc4F)CCC(F)(F)CC3)CC2)c1 [compound 163, N-((4,4-Difluoro-1-(4-(1-methyl-1H-imidazol-4-ylsulfonyl)piperazin-1-yl)cyclohexyl)methyl)-2,6-difluorobenzamide Hydrochloride] | 123 | 202 | – | 132 | 215 | – | 280 | 221 | – | – | – | – |
| 17 | > 75 | CCCS(=O)(=O)N1CCN(C2(CNC(=O)c3ccc(C(F)(F)F)cc3Cl)CCC(F)(F)CC2)CC1 [compound 151, N-((4,4-Difluoro-1-(4-(propylsulfonyl)piperazin-1-yl)cyclohexyl)methyl)-2-chloro-4-(trifluoromethyl)benzamide Hydrochloride] | 209 | 221 | – | 169 | 249 | – | 204 | 238 | – | – | – | – |
| 11 | > 75 | CCCS(=O)(=O)N1CCN(C2(CNC(=O)c3c(C)cc(Cl)cc3C)CCC(F)(F)CC2)CC1 [compound 266, 4-Chloro-N-((4,4-difluoro-1-(4-(propylsulfonyl)piperazin-1-yl)cyclohexyl)methyl)-2,6-dimethylbenzamide Hydrochloride] | – | – | – | – | – | – | – | – | – | – | – | – |
| 5 | > 75 | Cn1cc(S(=O)(=O)N2CCN(C3(CNC(=O)c4c(F)cccc4F)CCC(F)(F)CC3)CC2)nn1 [compound 189, N-((4,4-Difluoro-1-(4-(1-melhyl-1H-1,2,3-triazol-4-ylsulfonyl)piperazin-1-yl)cyclohexyl)methyl)-2,6-difluorobenzamide Hydrochloride] | 158 | 219 | – | 203 | 270 | – | 281 | 288 | – | – | – | – |
| 1 | > 75 | Cn1cc(S(=O)(=O)N2CCN(C3(CNC(=O)c4ccc(F)cc4Cl)CCC(F)(F)CC3)CC2)nn1 [compound 192, 2-Chloro-N-((4,4-difluoro-1-(4-(1-methyl-1H-1,2,3-triazol-4-ylsulfonyl)piperazin-1-yl)cyclohexyl)methyl)-4-fluorobenzamide Hydrochloride] | 195 | – | – | 311 | – | – | – | – | 173 | 199 | – | – |
| 1 | > 75 | Cn1cc(S(=O)(=O)N2CCN(C3(CNC(=O)c4ccc(C(F)(F)F)cc4Cl)CCC(F)(F)CC3)CC2)nn1 [compound 193, 2-Chloro-N-((4,4-difluoro-1-(4-(1-methyl-1H-1,2,3-triazol-4-ylsulfonyl)piperazin-1-yl)cyclohexyl)methyl)-4-(trifluoromethyl)benzamide Hydrochloride] | – | – | – | 282 | 279 | – | – | – | – | – | 303 | 355 |
